# Source: PubChem BioAssay (NCI)
# Where “and” joins values, the source holds several entries; their conditions need not be identical. Equal values may be shown once.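 Interpolation was linear, between the two tested concentrations surrounding the appropriate level; five concentrations were tested over 48 hours in 96-well plates. Abbreviation: GI50, concentration required for 50% inhibition of growth. TGI denotes the concentration required for complete inhibition of growth.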
# Experiments:
# Test in all cases: inhibition of tumour cell growth, NCI panel, 48 h
# HS 578T breast = test system: HS 578T breast
# NCI/ADR-RES ovarian = test system: NCI/ADR-RES ovarian
# DMS 273 small cell lung = test system: DMS 273 small cell lung
# KM20L2 colon = test system: KM20L2 colon
# LXFL 529 NSCLC = test system: LXFL 529 NSCLC
# M19-MEL melanoma = test system: M19-MEL melanoma
# HOP-18 NSCLC = test system: HOP-18 NSCLC
# MDA-N = test system: MDA-N
# RXF-631 renal = test system: RXF-631 renal
Compound,GI50 (HS 578T breast),TGI (HS 578T breast),GI50 (NCI/ADR-RES ovarian),TGI (NCI/ADR-RES ovarian),TGI (DMS 273 small cell lung),TGI (KM20L2 colon),TGI (LXFL 529 NSCLC),TGI (M19-MEL melanoma),TGI (HOP-18 NSCLC),TGI (MDA-N),TGI (RXF-631 renal)
Cc1ccc(NC(=O)c2nc(S(C)(=O)=O)oc2-c2ccc(F)cc2)cc1Nc1ccc2ncn(C)c(=O)c2c1,3.06 µM,14.9 µM,3.14 µM,15.7 µM,,,,,,,
O=C(c1cccs1)c1nc2cc(Cl)ccc2[n+]([O-])c1C(F)(F)F,> 100 µM,> 100 µM,> 100 µM,> 100 µM,,,,,,,
CCCOc1ccc(/C=N/Nc2cc(C)nc3ccc(Cl)cc23)cc1,2.15 µM,4.63 µM,1.9 µM,3.81 µM,,,,,,,
COc1cc2c(cc1OCCCCn1c(-c3cccs3)nc3ccccc31)N=C[C@@H]1CCCN1C2=O,1.7 µM,6.43 µM,3.24 µM,13.9 µM,,,,,,,
O=Cc1ccc(-c2ccc(-c3ccc(C=O)o3)[se]2)o1,> 100 µM,> 100 µM,> 100 µM,> 100 µM,,,,,,,
O=C(O)c1cn(C2CC2)c2cc(N3CCN(C(=O)Nc4nc(-c5ccc(Br)cc5)cs4)CC3)c(F)cc2c1=O,1.91 µM,> 100 µM,> 100 µM,> 100 µM,,,,,,,
O=c1[nH]c(F)nc2c1ncn2C1OC(CO)C(O)C1O (stereo unspecified),> 100 µM,> 100 µM,> 100 µM,> 100 µM,,,,,,,
FC(F)(F)c1ccc(-c2ncc(-c3ccc(C(F)(F)F)cc3)c(NCc3cc(C(F)(F)F)cc(C(F)(F)F)c3)n2)cc1,2.83 µM,27.4 µM,4.62 µM,> 100 µM,,,,,,,
O=C(/C=C/c1nnc2n(Cc3ccccc3)c(=O)c3c4c(sc3n12)CCCC4)c1ccccc1,3.76 µM and 0.502 µM,> 100 µM,,,,,,,,,
NC(=N\N=C/c1ccc(Cl)cc1Cl)/C(N)=N\N=C/c1ccc(Cl)cc1Cl,3.39 µM,> 30.4 µM,38.7 µM,> 100 µM,,,,,,,
FC(F)(F)c1cc(-c2ncn(/C=C\c3nnco3)n2)cc(C(F)(F)F)c1,0.195 µM,8.28 µM,0.304 µM,> 63.5 µM,,,,,,,
CCOc1cc(/C=C/C(=O)C(C(=O)/C=C/c2ccc(OC(=O)CNc3nnc(C)s3)c(OCC)c2)C(=O)CNc2nnc(C)s2)ccc1OC(=O)CNc1nnc(C)s1,2.28 µM,12.4 µM,3.51 µM,> 71.2 µM,,,,,,,
CC1=NC=C(O)c2ccccc2O1,,,,,> 100 µM,> 100 µM,> 100 µM,> 100 µM,,,
C#CCn1c(=O)c2cccnc2n(CC#C)c1=O,,,,,> 100 µM,,> 100 µM,,> 100 µM,,
COC1=CC(=O)c2c(cc3c(c2O)-c2c(OC)cc4cc5c(c(O)c4c2OC(=O)CC(C)(O)C3)C(=O)CC(C)(O)C5)C1=O (stereo unspecified),,,,,5.31 µM,5.29 µM,4.6 µM,1.52 µM,5.39 µM,,
CS(=N)(=O)CCC(N)P(=O)(O)O (stereo unspecified),,> 100 µM,,> 100 µM,,,,,,> 100 µM,
O=C(Cc1ccccc1)N/N=C(/c1nc2ccc([N+](=O)[O-])cc2[nH]c1=O)C(O)c1ccc(C(O)/C(=N/NC(=O)Cc2ccccc2)c2nc3ccc([N+](=O)[O-])cc3[nH]c2=O)cc1 (stereo unspecified),,,,,,> 100 µM,> 100 µM,> 100 µM,,,> 100 µM

Compound,GI50 (HS 578T breast),TGI (HS 578T breast),GI50 (NCI/ADR-RES ovarian),TGI (NCI/ADR-RES ovarian),TGI (DMS 273 small cell lung),TGI (KM20L2 colon),TGI (LXFL 529 NSCLC),TGI (M19-MEL melanoma),TGI (HOP-18 NSCLC),TGI (MDA-N),TGI (RXF-631 renal)
O=C1Oc2cc3c(c4cccc1c24)OCN(c1ccccc1)C3,,,,,> 100 µM,> 100 µM,> 100 µM,> 100 µM,,,
O=C(O)CCC1CCc2cccc(OCC(=O)O)c2C1=O (stereo unspecified),,,,,> 100 µM,> 100 µM,> 100 µM,> 100 µM,> 100 µM,,
COc1ccc2[nH]c3c4c(cc(-c5ccccc5)c3c2c1)C(=O)N(c1ccccc1)C4=O,,,,,36.8 µM,> 100 µM,64.3 µM,> 100 µM,> 100 µM,,
O=C1C=CC(=O)N1c1ccc(I)cc1,,66.3 µM,,82.3 µM,,,,,,30.1 µM,
Cc1cc(=O)oc2cc(OC(=O)Nc3ccccc3)ccc12,,> 100 µM,,> 100 µM,,,,,,> 100 µM,
CC1(C)OC2C(CO)OC(n3ccc(N)nc3=O)C2O1 (stereo unspecified),,> 100 µM,,> 100 µM,,,,,,> 100 µM,
CCCCCCc1cc2cc(-c3csc(/C=C/c4ccccc4)n3)c(=O)oc2cc1O,9 µM,42.7 µM,4.53 µM,17.7 µM,,,,,,,
COc1ccc(/C=C/C(=O)c2ccc(Nc3nc(Nc4ccc(F)cc4)nc(Nc4ccc(Cl)cc4)n3)cc2)cc1,14.6 µM,52.3 µM,> 100 µM,> 100 µM,,,,,,,
CCC(C)CC(C)C(=O)c1c(O)ccn(O)c1=O (stereo unspecified),3.08 µM,> 100 µM,0.395 µM,5.15 µM,,,,,,,
O=C(Cc1ccc(Nc2ccnc(C(F)(F)F)c2)cc1)N/N=C/c1ccccc1O,2.66 µM,29 µM,2.83 µM,33 µM,,,,,,,
NC1=NC2=C(CCCC2)C(c2cccs2)S1 (stereo unspecified),,,,,> 100 µM,> 100 µM,> 100 µM,> 100 µM,> 100 µM,,
CCCCCC#COC1CC(C)CC[C@@H]1C(C)C (stereo partly specified),,,,,> 100 µM,> 100 µM,> 100 µM,> 100 µM,> 100 µM,,
Cc1cc(C(O)(c2ccc(Nc3ccccc3)cc2)c2ccc(Nc3ccc(S(=O)(=O)O)cc3)cc2)ccc1N (stereo unspecified),1.5 µM,5.55 µM,1.83 µM,4.58 µM,,,,,,,
Cc1cc2c(cc1C)[n+](=O)c(C(=O)CC(=O)C(=O)Nc1ccccc1C(C)C)c(C)n2[O-],,,,,> 100 µM,> 100 µM,> 100 µM,> 100 µM,,,> 100 µM
O=C(NS(=O)(=O)c1ccc(NC[C@H]2COCCO2)c([N+](=O)[O-])c1)c1ccc(N2CCN(CC3=C(c4ccc(Cl)cc4)CC4(CCC4)CC3)CC2)cc1Oc1cnc2[nH]ccc2c1,2.12 µM,5.76 µM,4.88 µM,24.9 µM,,,,,,,
CCC(C)(C)[C@H](NC(=O)[C@H]1CCCCN1C)C(=O)N(C)[C@H](C[C@@H](OC(C)=O)c1nc(C(=O)N[C@@H](Cc2ccccc2)C[C@H](C)C(=O)O)cs1)C(C)C,< 0.00167 µM,> 11.5 µM,0.00342 µM,> 16.7 µM,,,,,,,
